pEC50: −log10 of the molar value.
How the values were obtained:
[1] = Clearance in nontumor bearing Balb/C mouse at 0.5 mg/kg; type: ADME, organism-based; settings: in vivo
[2] = Metabolic stability in mouse liver microsomes assessed as compound remaining at 0.5 uM incubated for 10 mins in presence of NADPH by UV absorbance based assay; type: ADME, Microsome; settings: read-out: Stability
[3] = Metabolic stability in human liver microsomes assessed as compound remaining at 0.5 uM incubated for 10 mins in presence of NADPH by UV absorbance based assay; type: ADME, Microsome; settings: read-out: Stability
[4] = Half life in nontumor bearing Balb/C mouse at 0.5 mg/kg; type: ADME, organism-based; settings: in vivo
[5] = AUClast in nontumor bearing Balb/C mouse at 0.5 mg/kg; type: ADME, organism-based; parameters: dose 0.5 mg/kg; settings: in vivo
[6] = Drug concentration in nontumor bearing Balb/C mouse at 0.5 mg/kg measured after 5 mins; type: ADME, organism-based; settings: in vivo, read-out: Drug uptake
[7] = biological target: T1, Toll-like receptor 8 (Homo sapiens, UniProt Q9NR97); test: Agonist activity at human TLR8
T1 sequence (Q9NR97 whole entry): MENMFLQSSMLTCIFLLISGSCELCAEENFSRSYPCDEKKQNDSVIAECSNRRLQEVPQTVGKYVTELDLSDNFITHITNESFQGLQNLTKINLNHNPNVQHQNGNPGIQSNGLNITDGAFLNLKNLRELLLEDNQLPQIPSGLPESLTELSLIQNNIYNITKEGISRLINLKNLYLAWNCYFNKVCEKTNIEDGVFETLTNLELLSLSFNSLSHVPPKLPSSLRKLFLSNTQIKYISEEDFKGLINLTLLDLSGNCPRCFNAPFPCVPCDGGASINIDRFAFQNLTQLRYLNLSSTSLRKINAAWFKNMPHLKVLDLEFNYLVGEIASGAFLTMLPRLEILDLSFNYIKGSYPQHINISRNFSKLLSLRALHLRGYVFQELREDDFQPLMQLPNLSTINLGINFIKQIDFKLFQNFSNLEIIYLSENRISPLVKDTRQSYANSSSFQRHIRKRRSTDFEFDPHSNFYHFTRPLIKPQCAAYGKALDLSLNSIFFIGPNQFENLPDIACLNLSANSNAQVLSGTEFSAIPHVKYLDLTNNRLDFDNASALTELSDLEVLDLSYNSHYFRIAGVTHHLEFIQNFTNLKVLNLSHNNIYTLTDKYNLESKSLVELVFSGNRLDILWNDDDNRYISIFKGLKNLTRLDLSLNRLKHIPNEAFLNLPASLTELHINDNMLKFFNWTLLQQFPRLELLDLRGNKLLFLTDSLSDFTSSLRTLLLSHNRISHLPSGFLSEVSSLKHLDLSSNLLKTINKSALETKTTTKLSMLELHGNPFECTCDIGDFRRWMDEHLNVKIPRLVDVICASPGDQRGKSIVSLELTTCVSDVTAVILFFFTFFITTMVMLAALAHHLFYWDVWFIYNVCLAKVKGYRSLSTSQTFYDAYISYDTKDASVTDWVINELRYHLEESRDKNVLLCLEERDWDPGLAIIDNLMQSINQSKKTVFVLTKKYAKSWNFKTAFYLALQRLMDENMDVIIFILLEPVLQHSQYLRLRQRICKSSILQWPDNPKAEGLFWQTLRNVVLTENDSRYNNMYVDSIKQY

## CCC[C@@H](CCO)Nc1nc(N)nc2cnn(Cc3ccc(CNC4CCOCC4)cc3OC)c12
[1]
  clearance: 149 mL/min/kg
[2]
  remaining at 10 min, 0.5 µM: 81%
[3]
  remaining at 10 min, 0.5 µM: 75%
[4]
  half-life: 5.6 h
[5]
  AUC(0-t): 0.111 µM·h
[6]
  concentration at 5 min: 66 nM
[7]
  pEC50: < 5.30

From ChEMBL document CHEMBL5357082, “Identification and Optimization of Small Molecule Pyrazolopyrimidine TLR7 Agonists for Applications in Immuno-oncology” (ACS Med Chem Lett, 2024)
